According to patent US20210198633A1, “METHODS AND COMPOSITIONS COMPRISING TANKYRASE INHIBITORS FOR GENERATING INSULIN PRODUCING CELLS” (UNIVERSITY HEALTH NETWORK, priority 2018, published 2021):
Entries after “also recorded” stand apart in the source; their conditions may differ.

Tests used:
Assay type in all cases: cell-based, human
H1 cell line = assay: C-Peptide+/NKX6-1+ beta-like cells by flow cytometry at day 23; details: treatment day 8 to day 13: WIKI4 9 uM, G007-LK 5 uM, JW74 10 uM, JW55 5 uM
Source text: Flow cytometry analysis for C-Peptide (a surrogate for insulin) and NKX6.1 performed at day 23 of differentiation, showing high percentage of C-peptide+/NKX6-1+ cells (beta-like cells). Numbers in each quadrant indicate the relevant percentage of the total population. Results shown are from H1 cell line.
FIG. 7 show specific tankyrase inhibitors generate high percentages of beta-like cells as measured by C-peptide/NKX6-1 double positive cells using H1 cell line. […] Results shown are from H1 cell line. Error bars represent SEM. n=4 for all, n=1 for JW74.

INS^GFP/W reporter line [1] = assay: INSULIN:GFP+ cells by fluorescence imaging and flow cytometric analysis after further differentiation; details: NE + IWR-1-endo 3 uM or WIKI4 9 uM day 8 to day 13; read day 21/23; compared with XAV939 1.5 uM and MN64 3 uM
Description: Cells treated with various tankyrase pathway inhibitors (Cell treated with NE alone or NE in combination with tankyras inhibitors (NE+XAV939 1.5 uM, NE+IWR-1-endo 3 uM, NE+MN64 3 uM, NE+WIKI4 9 uM)) between day 8 and day 13 of differentiation were differentiated for an additional 10 days using a modified version of the differentiation protocol developed by Rezania and Pagliuca (Rezania et al 2014, Pagliuca 2014). Representative bright field and fluorescent images of cellular aggregates are shown at day 23 of differentiation. Results shown are from INS^GFP/W reporter line.
Quantification of the percentage of INSULIN:GFP+ cells measured by flow cytometric analysis at day 23 of differentiation, arising from cells treated or untreated with different compounds: XAV939, IWR-1, MN64, WIKI4. Cells were treated using NE (−) or NE in combination with different compounds: XAV939 1.5 uM, IWR-1 3 uM, MN64 3 uM, WIKI4 9 uM. Results shown are from INS^GFP/W reporter line, Error bars represent standard deviation. n=4.
In this report we present a new method to generate PDX1+/NKX6.1+ endoderm from a variety of hPSC lines. […] (See FIGS. 1-5).

INS^GFP/W reporter line [2] = assay: Insulin transcript by QPCR normalized to TBP; details: day 23; WIKI4 9 uM compared to IWR-1 3 uM, MN64 3 uM, XAV939 1.5 uM
Description: Cells treated with different tankyrase inhibitors express different amounts of insulin transcript, as measured by QPCR. Shown is the relative expression of insulin transcript normalized to the housekeeping gene TBP (TATA Binding Protein) at day 23 of differentiation, where pancreatic progenitor cells were generated by treating cells with or without XAV939, IWR-1, MN64, WIKI4 (XAV939 1.5 uM, IWR-1 3 uM, MN64 3 uM, WIKI4 9 uM). Adult pancreas is used as positive control. Results shown are from INS^GFP/W reporter line. Error bars represent standard deviation. n=3.

Row | Structure (SMILES) | percentage of C-Peptide+/NKX6-1+ beta-like cells (H1 cell line) | percentage of INSULIN:GFP+ cells (INS^GFP/W reporter line [1]) | relative expression of insulin transcript (INS mRNA) normalized to TBP (INS^GFP/W reporter line [2])
1 | CS(=O)(=O)c1ccc(-c2nnc(/C=C/c3nnc(-c4ccc(C#N)cc4)o3)n2-c2ccccc2Cl)nc1 [G007-LK] | able to generate a population of C-peptide+/NKX6.1+ insulin-expressing beta-like cells | – | –
2 | O=C(Nc1cccc2cccnc12)c1ccc(N2C(=O)[C@@H]3[C@H](C2=O)[C@@H]2C=C[C@H]3C2)cc1 [IWR-1] | – | higher percentages of INSGFP+ cells; also recorded: higher percentages of Insulin:GFP+ cells | –
3 | COc1ccc(C2(CNC(=O)c3ccc(NC(=O)c4ccco4)cc3)CCOCC2)cc1 [JW55] | able to generate a population of C-peptide+/NKX6.1+ insulin-expressing beta-like cells | – | –
4 | COc1ccc(-n2c(SCc3nc(-c4ccc(C)cc4)no3)nnc2-c2ccncc2)cc1 [JW74] | able to generate a population of C-peptide+/NKX6.1+ insulin-expressing beta-like cells | – | –
5 | COc1ccc(-n2c(SCCCN3C(=O)c4cccc5cccc(c45)C3=O)nnc2-c2ccncc2)cc1 [WIKI4] | high percentages of C-Peptide+/NKX6-1+ insulin expressing beta-like cells; also recorded: able to generate a population of C-peptide+/NKX6.1+ insulin-expressing beta-like cells | higher percentages of INSGFP+ cells; also recorded: higher percentages of Insulin:GFP+ cells | higher levels of INS mRNA
